Species on record: Rattus norvegicus
Assay: DrugMatrix - Regimen: Daily Repeat
Format: toxicity, organism-based, Sprague-Dawley
Parameters: regimen Daily Repeat, gender Male, age 6-8 weeks
Conditions: in vivo, iv, vehicle 100 % SALINE; for ABSOLUTE BASOPHIL / ABSOLUTE EOSINOPHIL / ABSOLUTE LYMPHOCYTE / ABSOLUTE MONOCYTE / ABSOLUTE SEGMENTED NEUTROPHIL / BASOPHIL / EOSINOPHIL / ERYTHROCYTE COUNT / HEMATOCRIT / HEMOGLOBIN / LEUKOCYTE COUNT / LYMPHOCYTE / MEAN CORPUSCULAR HEMOGLOBIN / MEAN CORPUSCULAR HEMOGLOBIN CONCENTRATION / MEAN CORPUSCULAR VOLUME / MONOCYTE / NEUTROPHIL / NUCLEATED RED BLOOD CELLS / PLATELET COUNT: tissue Blood
[1] = 400 mg/kg, 72 h, dose level Low, time 3 day
[2] = 400 mg/kg, 72 h, tissue Plasma, dose level Low, time 3 day
[3] = 400 mg/kg, 120 h, dose level Low, time 5 day
[4] = 400 mg/kg, 120 h, tissue Plasma, dose level Low, time 5 day
[5] = 1200 mg/kg, 72 h, dose level M1, time 3 day

NC(CO)(CO)CO [TROMETHAMINE]
ABSOLUTE BASOPHIL [1]: 0 CELLS/uL | ABSOLUTE EOSINOPHIL [1]: 233.33 CELLS/uL | ABSOLUTE LYMPHOCYTE [1]: 15317.33 CELLS/uL | ABSOLUTE MONOCYTE [1]: 347.33 CELLS/uL | ABSOLUTE SEGMENTED NEUTROPHIL [1]: 1468.67 CELLS/uL | BASOPHIL [1]: 0% | EOSINOPHIL [1]: 1.33% | ERYTHROCYTE COUNT [1]: 5.74 x10E6/uL | HEMATOCRIT [1]: 36.9% | HEMOGLOBIN [1]: 13.67 G/DL | LEUKOCYTE COUNT [1]: 17.37 x10E3/uL | LYMPHOCYTE [1]: 88.33% | MEAN CORPUSCULAR HEMOGLOBIN [1]: 23.87 pg | MEAN CORPUSCULAR HEMOGLOBIN CONCENTRATION [1]: 37.03 G/DL | MEAN CORPUSCULAR VOLUME [1]: 64.37 fL | MONOCYTE [1]: 2% | NEUTROPHIL [1]: 8.33% | NUCLEATED RED BLOOD CELLS [1]: 0 /100WBC | PLATELET COUNT [1]: 1402.67 x10E3/uL | ALANINE AMINOTRANSFERASE [2]: 55.67 u/L | ALBUMIN [2]: 4.27 G/DL | ALKALINE PHOSPHATASE [2]: 354.33 u/L | ASPARTATE AMINOTRANSFERASE [2]: 97 u/L | BLOOD UREA NITROGEN [2]: 17.67 mg/dL | CARBON DIOXIDE [2]: 20 mmol/L | CHLORIDE [2]: 107 MEQ/L | CHOLESTEROL [2]: 81.67 mg/dL | CREATINE PHOSPHOKINASE [2]: 249.33 u/L | CREATININE [2]: 0.23 mg/dL | GLUCOSE [2]: 184.67 mg/dL | LACTATE DEHYDROGENASE [2]: 286.33 u/L | LIPASE [2]: 9.33 u/L | PHOSPHORUS [2]: 14.23 mg/dL | POTASSIUM [2]: 7.13 MEQ/L | SODIUM [2]: 150.03 MEQ/L | TOTAL BILIRUBIN [2]: 0.23 mg/dL | URIC ACID [2]: 2.83 mg/dL | ABSOLUTE BASOPHIL [3]: 0 CELLS/uL | ABSOLUTE EOSINOPHIL [3]: 193.67 CELLS/uL | ABSOLUTE LYMPHOCYTE [3]: 13973.67 CELLS/uL | ABSOLUTE MONOCYTE [3]: 314 CELLS/uL | ABSOLUTE SEGMENTED NEUTROPHIL [3]: 1218.67 CELLS/uL | BASOPHIL [3]: 0% | EOSINOPHIL [3]: 1.33% | ERYTHROCYTE COUNT [3]: 5.88 x10E6/uL | HEMATOCRIT [3]: 36.53% | HEMOGLOBIN [3]: 13.73 G/DL | LEUKOCYTE COUNT [3]: 15.7 x10E3/uL | LYMPHOCYTE [3]: 89% | MEAN CORPUSCULAR HEMOGLOBIN [3]: 23.33 pg | MEAN CORPUSCULAR HEMOGLOBIN CONCENTRATION [3]: 37.6 G/DL | MEAN CORPUSCULAR VOLUME [3]: 62.13 fL | MONOCYTE [3]: 2% | NEUTROPHIL [3]: 7.67% | NUCLEATED RED BLOOD CELLS [3]: 0 /100WBC | PLATELET COUNT [3]: 1369.33 x10E3/uL | ALANINE AMINOTRANSFERASE [4]: 59 u/L | ALBUMIN [4]: 4.13 G/DL | ALKALINE PHOSPHATASE [4]: 352 u/L | ASPARTATE AMINOTRANSFERASE [4]: 100.33 u/L | BLOOD UREA NITROGEN [4]: 18 mg/dL | CARBON DIOXIDE [4]: 26.67 mmol/L | CHLORIDE [4]: 105 MEQ/L | CHOLESTEROL [4]: 63.33 mg/dL | CREATINE PHOSPHOKINASE [4]: 312.67 u/L | CREATININE [4]: 0.17 mg/dL | GLUCOSE [4]: 152 mg/dL | LACTATE DEHYDROGENASE [4]: 490 u/L | LIPASE [4]: 8 u/L | PHOSPHORUS [4]: 13.27 mg/dL | POTASSIUM [4]: 6.29 MEQ/L | SODIUM [4]: 147.27 MEQ/L | TOTAL BILIRUBIN [4]: 0.13 mg/dL | TOTAL PROTEIN [4]: 6.23 G/DL | URIC ACID [4]: 1.6 mg/dL | ABSOLUTE BASOPHIL [5]: 0 CELLS/uL | ABSOLUTE EOSINOPHIL [5]: 114.67 CELLS/uL | ABSOLUTE LYMPHOCYTE [5]: 5662 CELLS/uL | ABSOLUTE MONOCYTE [5]: 0 CELLS/uL | ABSOLUTE SEGMENTED NEUTROPHIL [5]: 823.33 CELLS/uL | BASOPHIL [5]: 0% | EOSINOPHIL [5]: 1.67% | ERYTHROCYTE COUNT [5]: 4.96 x10E6/uL | HEMATOCRIT [5]: 32.13% | HEMOGLOBIN [5]: 12.23 G/DL | LEUKOCYTE COUNT [5]: 6.6 x10E3/uL | LYMPHOCYTE [5]: 86% | MEAN CORPUSCULAR HEMOGLOBIN [5]: 24.7 pg | MEAN CORPUSCULAR HEMOGLOBIN CONCENTRATION [5]: 38.17 G/DL | MEAN CORPUSCULAR VOLUME [5]: 64.73 fL | MONOCYTE [5]: 0% | NEUTROPHIL [5]: 12.33% | NUCLEATED RED BLOOD CELLS [5]: 0 /100WBC | PLATELET COUNT [5]: 1106 x10E3/uL
